From article PMC6058716, “Two Odorant-Binding Proteins of the Dark Black Chafer (Holotrichia parallela) Display Preferential Binding to Biologically Active Host Plant Volatiles” (Frontiers in Physiology, 2018)
pIC50, pKi: −log10 of the molar value. Where two headings read alike, the source gives them in different places.

Key:
HparOBP20 = HparOBP20 (Holotrichia parallela, UniProt A0A0G2YKL4); assay: Fluorescence competitive binding assay with 1-NPN probe, recombinant HparOBP20
Experimental: (§1) Purification was performed via Ni ion affinity chromatography (GE Healthcare, Beijing, China), and the His-tag was removed using enterokinase for HparOBP20 or tobacco etch virus (TEV) protease for HparOBP49.
(§2) We used an F-380 fluorescence spectrophotometer (Tianjin, China) to determine the results of the perform the binding assay at room temperature (25°C). The excitation wavelength was 337 nm, and the emission spectrum was recorded between 390 and 460 nm.

HparOBP49 = HparOBP49 (Holotrichia parallela, UniProt A0A0G2YD95); assay: Fluorescence competitive binding assay with 1-NPN probe, recombinant HparOBP49
HparOBP49, sequence (A0A0G2YD95 entry or part of it): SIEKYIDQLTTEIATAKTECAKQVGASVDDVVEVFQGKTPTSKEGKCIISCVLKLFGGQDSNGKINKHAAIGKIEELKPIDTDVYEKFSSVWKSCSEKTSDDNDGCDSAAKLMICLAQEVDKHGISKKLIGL
Experimental: as §1, §2

DBC adults [1] = assay: Field evaluation, baited traps; type: in vivo, Holotrichia parallela; conditions: for Male DBCs caught in traps: males, 360 mg per dispenser, mean ± SE, N=3 traps; for Attractant ability in traps: result in words
Experimental: According to the laboratory evaluation, in addition to the main sex pheromone component, L-leucine methyl ester, (Z)-3-hexenyl acetate was considered as a candidate compound for attracting DBC adults in the field. The tested chemicals were individually dissolved with methanol to 360 mg/ml. A dispenser was constructed using oil-free cotton wool with 360 mg of the tested chemical and stored in a freezer before use. Methanol was employed as a control. The treatments were as follows: • - L-leucine methyl ester alone, 360 mg/ml, 1 ml/dispenser • - (Z)-3-hexenyl acetate alone, 360 mg/ml, 1 ml/dispenser • - methanol alone as control, 99% purity, 1 ml/dispenser All experiments were performed at the experimental station of the Shandong Peanut Research Institute, Lai Xi Wang Cheng, Qingdao, China. Traps were placed in middle of the field, and each trap was located 60 m from any other trap, so that the individual treatments were 60 m apart. To avoid cross-contamination, only one compound was tested at each sub-site at any time, and each compound was tested at only one sub-site ([Isberg et al., 2017]). Each trap was set to operate from 1 h before sunset until 1 h after sunset. Three traps (replicates) were selected for each treatment. The test period was June 1–20, 2017. As a rule, the traps were checked every day, and the individuals that were caught in all experiments were sexed.

DBC antennae = assay: Electroantennogram (EAG) responses of virgin male/female antennae; design: species or system Holotrichia parallela; conditions: 1 μg/μl, corrected with methanol; for EAG response, males: male antennae
Experimental: The EAG responses of virgin male/female antennae were measured after removing the tips of the three antennal lamellae (at approximately 1 mm) and separating them from each other. The chemicals used for the EAG and behavior assays were diluted in methanol (HPLC grade) to varying concentrations (0.1, 1, and 10 μg/μl), and methanol was used as a control. A 10 μl aliquot of each concentration was applied to a filter paper (25 × 8 mm). EAG responses were recorded for 5 s, with a stimulation interval of 30 s and a flow rate of 4 ml/s for both the stimulant and purge airflow. Each chemical was tested against six antennae, and each antenna was tested with three repeated stimulations. The EAG apparatus consisted of a signal acquisition system (IDAC-4), a micromanipulator assembly (INR-5), a stimulus controller (CS-05), and a system for outputting the EAG results (Syntech Company, Holland).

DBC adults [2] = assay: Y-tube olfactometer behavioral response; type: in vivo, Holotrichia parallela; conditions: 1 μg/μl, T/(T+C); for Selective response rate (%), Male / Selective response rate (%), Female: in Figure 6, letters mark significance
Experimental: The behavioral responses of female and male adults to the putative ligands were tested using a Y-tube olfactometer in a dark room at 27 ± 1°C. A filter paper (25 × 8 mm) with 10 μl of the test compound was placed at the end of one arm of the Y-tube, with 10 μl of methanol at the end of the other arm (control tube). The airflow was 500 ml/min. Six replicates were performed for each stimulant with 10 healthy virgin adults in the main stem of the Y-tube, and 10 min was allowed for their distribution. The response rate was calculated according to the following equations: response rate = (T+C)/SUM and selective response rate = T/(T+C), where T represents the number of beetles in the treatment tube; C indicates the number of beetles in the control tube; and SUM is the number of beetles tested.

[3] = displacement of 2 μM 1-NPN, 2 μM protein, Tris-HCl pH 7.4, 25°C, read-out: IC50, HparOBP20
[4] = displacement of 2 μM 1-NPN, 2 μM protein, Tris-HCl pH 7.4, 25°C, read-out: IC50, HparOBP49
[5] = calculated from IC50, Ki = [IC50]/(1+[1-NPN]/K1-NPN), read-out: Ki, HparOBP20
[6] = Ki, HparOBP20, calculated from IC50, Ki = [IC50]/(1+[1-NPN]/K1-NPN)

HparOBP20, sequence (A0A0G2YKL4 entry or part of it): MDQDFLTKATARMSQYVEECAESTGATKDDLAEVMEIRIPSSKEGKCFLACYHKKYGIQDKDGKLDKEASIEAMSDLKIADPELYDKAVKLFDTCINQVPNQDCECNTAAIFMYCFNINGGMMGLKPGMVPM

Compound	pIC50 (HparOBP20)	pIC50 (HparOBP49)	pIC50 (HparOBP20; [3])	pIC50 (HparOBP49; [4])	other results
CCCCCC=O [1-Hexanal]	< 4.30	< 4.30			
CCCCCCO [1-Hexanol]			< 4.30	< 4.30	
Cn1cccc1 [1-Methylpyrrole]			4.58	< 4.30	pKi (HparOBP20; [5]): 4.66
CCCCCCCCO [1-Octanol]			4.52	< 4.30	pKi (HparOBP20; [5]): 4.60
CC(=O)c1ccc(C)c(C)c1 [3′,4′-Dimethylacetophenone]			< 4.30	< 4.30	
CCc1ccc(C(C)=O)cc1 [4′-Ethylacetophenone]	< 4.30	< 4.30			
CCC/C=C/CO [(E)-2-Hexen-1-ol]	< 4.30	< 4.30			
CCC/C=C/C=O [(E)-2-Hexenal]	< 4.30	< 4.30			
CCC/C=C/COC(C)=O [(E)-2-Hexenyl acetate]			4.56	< 4.30	pKi (HparOBP20; [5]): 4.63
CC/C=C/CCO [(E)-3-Hexen-1-ol]	4.52	< 4.30			pKi (HparOBP20; [6]): 4.60
C=C(C)[C@H]1CC=C(C)CC1 [(R)-(+)-Limonene]			4.54	< 4.30	pKi (HparOBP20; [5]): 4.62
C=C[C@](C)(O)CCC=C(C)C [(R)-(-)-Linalool]			< 4.30	< 4.30	
CC/C=C\CCO [(Z)-3-Hexen-1-ol]	4.52	< 4.30			pKi (HparOBP20; [6]): 4.60
CC/C=C\CCOC(C)=O [(Z)-3-Hexenyl acetate]			4.66	4.35	Male DBCs caught in traps (DBC adults [1]): 83 ± 4.933 DBCs; pKi (HparOBP20; [5]): 4.73; pKi (HparOBP49; calculated from IC50, Ki = [IC50]/(1+[1-NPN]/K1-NPN), read-out: Ki, HparOBP49): 4.40; EAG response, females (DBC antennae; female antennae): 4.84 mV; EAG response, males (DBC antennae): 4.02 mV; Selective response rate, females (DBC adults [2]; females): 98%; Selective response rate (%), Male (DBC adults [2]; males): 59%
O=Cc1ccccc1 [Benzaldehyde]	< 4.30	< 4.30			
OCc1ccccc1 [Benzyl alcohol]	< 4.30	< 4.30			

Compound	pIC50 (HparOBP20)	pIC50 (HparOBP49)	pIC50 (HparOBP20; [3])	pIC50 (HparOBP49; [4])	other results
CCCCCCCCCCCC [Dodecane]			4.31	< 4.30	pKi (HparOBP20; [5]): 4.39
CCCCCCCCCCCC=O [Dodecyl aldehyde]			< 4.30	< 4.30	
CC(C)=CCC/C(C)=C/CC/C(C)=C/CO [Farnesol, mixture of isomers, Farnesol]			< 4.30	< 4.30	
CCCCCC(=O)O [Hexanoic acid]	4.33	4.32			pKi (HparOBP20; [6]): 4.40; pKi (HparOBP49): 4.37
COC(=O)[C@@H](N)CC(C)C.Cl [L-Leucine methyl ester]			< 4.30	< 4.30	Male DBCs caught in traps (DBC adults [1]): 258 ± 12.860 DBCs; EAG response, males (DBC antennae): 5.68 mV; Selective response rate (%), Female (DBC adults [2]; females): 0.20c %; Selective response rate, males (DBC adults [2]; males): 96%
COC(=O)c1ccccc1 [Methyl benzoate]	< 4.30	< 4.30			
COC(=O)c1ccccc1O [Methyl salicylate]	4.55	< 4.30			pKi (HparOBP20; [6]): 4.62
CCCCCCCCC=O [Nonanal]			< 4.30	< 4.30	
CCCCCCCCC(=O)O [Nonanoic acid]			< 4.30	< 4.30	
CCCCCCCCCCCCCCC [Pentadecane]			4.78	< 4.30	Attractant ability in traps (DBC adults [1]): low attractant ability; pKi (HparOBP20; [5]): 4.86; Selective response rate (%), Female (DBC adults [2]; females): 67%; Selective response rate (%), Male (DBC adults [2]; males): 59%
CCCCC=O [Valeraldehyde]			4.51	< 4.30	pKi (HparOBP20; [5]): 4.58
CC1=CC[C@H](C(C)C)C=C1 [α-Phellandrene]	4.68	< 4.30			Attractant ability in traps (DBC adults [1]): low attractant ability; pKi (HparOBP20; [6]): 4.75; Selective response rate (%), Female (DBC adults [2]; females): 51%; Selective response rate (%), Male (DBC adults [2]; males): 73%
CC1=CCC2CC1C2(C)C (stereo not drawn) [α-Pinene]	4.57	< 4.30			pKi (HparOBP20; [6]): 4.65
C=C1CC/C=C(\C)CC[C@@H]2[C@@H]1CC2(C)C [β-Caryophyllene]	< 4.30	< 4.30			Selective response rate (%), Female (DBC adults [2]; females): 48%
Farnesene [Farnesene, mixture of isomers]			< 4.30	< 4.30	
Ocimene [Ocimene, mixture of isomers]			< 4.30	< 4.30	
